Results from ChEMBL document CHEMBL4680146, “Current progress in antimalarial pharmacotherapy and multi-target drug discovery” (Eur J Med Chem, 2020).
Values after ≈ are worked out from the molar mass of the structure shown.

What was measured:
[1] = system: Plasmodium vivax; assay: Antimalarial activity against Plasmodium vivax infected in human blood incubated for 40 to 44 hrs; format: functional, organism-based
[2] = Inhibition of Plasmodium falciparum DHODH expressed in Escherichia coli BL21(DE3) using L-dihydroorotate as substrate measured every 90 secs for 45 mins by absorbance method
[3] = system: Plasmodium falciparum; assay: Antimalarial activity against trophozoite stage Plasmodium falciparum 3D7 harboring NLuc infected in human erythrocytes assessed as inhibition of new permeability pathway by measuring infected erythrocytes sensitivity to sorbitol-mediated lysis by luminescence method; format: functional, organism-based; details: 3D7, Erythrocyte
[4] = system: Plasmodium falciparum; assay: Antimalarial activity against chloroquine-sensitive Plasmodium falciparum 3D7 infected in human red blood cells incubated for 48 hrs by [3H]-hypoxanthine incorporation assay; format: functional, organism-based, RBC; details: 3D7, Erythrocyte
[5] = system: Plasmodium falciparum; assay: Antimalarial activity against chloroquine-sensitive Plasmodium falciparum F32(CQS)Tanzania incubated for 48 hrs by classical radioactive microdilution method; format: functional, organism-based
[6] = target: T1, Falcipain 2 (Plasmodium falciparum, UniProt Q9N6S8); assay: Inhibition of Plasmodium falciparum FP-2
T1 sequence (Q9N6S8 whole entry): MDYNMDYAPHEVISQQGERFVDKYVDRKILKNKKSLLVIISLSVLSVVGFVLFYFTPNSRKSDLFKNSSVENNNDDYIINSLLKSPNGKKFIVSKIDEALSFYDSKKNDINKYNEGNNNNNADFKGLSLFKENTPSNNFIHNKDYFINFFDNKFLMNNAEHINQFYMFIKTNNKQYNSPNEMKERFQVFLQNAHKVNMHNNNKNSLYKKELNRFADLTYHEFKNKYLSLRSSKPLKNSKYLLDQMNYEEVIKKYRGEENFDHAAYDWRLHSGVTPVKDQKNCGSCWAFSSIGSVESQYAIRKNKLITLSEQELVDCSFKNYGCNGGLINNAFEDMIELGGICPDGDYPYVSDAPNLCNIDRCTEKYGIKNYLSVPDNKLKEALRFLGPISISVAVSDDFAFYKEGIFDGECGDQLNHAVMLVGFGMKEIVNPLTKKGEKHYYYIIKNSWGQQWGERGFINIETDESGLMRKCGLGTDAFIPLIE

[7] = Inhibition of Plasmodium falciparum DHFR
[8] = system: Plasmodium falciparum; assay: Antimalarial activity against chloroquine-resistant Plasmodium falciparum Dd2; format: functional, organism-based
[9] = system: Hemozoin; assay: Inhibition of beta-hematin assessed as heme alkylation at 2 molar equivalents incubated for 30 mins by HPLC analysis relative to control; design: scale not given: the % may be the effect or the level left
[10] = system: Plasmodium falciparum; assay: Antimalarial activity against chloroquine-resistant Plasmodium falciparum K1 infected in human erythrocytes assessed as inhibition of [G-3H]hypoxanthine uptake preincubated for 24 hrs followed by [G-3H]hypoxanthine addition and measured after 18 to 24 hrs by scintillation spectrometry; format: functional, organism-based; details: K1, Erythrocyte
[11] = system: Plasmodium falciparum; assay: Antimalarial activity against chloroquine-resistant Plasmodium falciparum T996 infected in human erythrocytes assessed as inhibition of [G-3H]hypoxanthine uptake preincubated for 24 hrs followed by [G-3H]hypoxanthine addition and measured after 18 to 24 hrs by scintillation spectrometry; format: functional, organism-based; details: T996, Erythrocyte
[12] = system: Plasmodium falciparum; assay: Antimalarial activity against Plasmodium falciparum 3D7 asexual forms incubated for 72 hrs by luminescence method; format: functional, organism-based; details: 3D7, 72 h
[13] = system: Plasmodium falciparum; assay: Antimalarial activity against Plasmodium falciparum infected in human erythrocytes assessed as inhibition of [G-3H]hypoxanthine uptake incubated for 42 hrs by liquid scintillation spectrometry; format: functional, organism-based; details: Erythrocyte
[14] = system: Plasmodium falciparum; assay: Antimalarial activity against Plasmodium falciparum 3D7A asexual forms assessed as inhibition of [G-3H]hypoxanthine uptake incubated for 24 hrs followed by [G-3H]hypoxanthine addition and measured after 18 hrs by liquid scintillation spectrometry; format: functional, organism-based
[15] = system: Plasmodium falciparum; assay: Antimalarial activity against multi-resistant Plasmodium falciparum infected in human erythrocytes assessed as inhibition of [G-3H]hypoxanthine uptake incubated for 42 hrs by liquid scintillation counting method; format: functional, organism-based; details: Erythrocyte
[16] = system: Plasmodium falciparum; assay: Antimalarial activity against chloroquine-sensitive Plasmodium falciparum 3D7 by SyBR Green method
[17] = system: Plasmodium vivax; assay: Antimalarial activity against Plasmodium vivax infected in human blood incubated for 24 to 36 hrs; format: functional, organism-based
[18] = system: Plasmodium falciparum; assay: Antimalarial activity against ring stage Plasmodium falciparum 3D7 measured for 72 hrs by absorbance method; format: functional, organism-based; details: 3D7, 72 h

With `COc1ncnc(NS(=O)(=O)c2ccc(N)cc2)c1OC` [SULFADOXINE] the IC50 [1] was 0.01 µg/mL (≈ 0.0322 µM).
Work on `O=C(Nc1ccc(-c2cn3ccsc3n2)cc1)c1ccc(S(=O)(=O)N2CCCCCC2)cc1` yielded an EC50 [2] of over 250000 nM and an EC50 [3] of 222 nM.
Work on `C[C@@H]1CC[C@H]2[C@@H](C)C(OCCN(CCCNc3ccnc4cc(Cl)ccc34)CCOC3O[C@@H]4O[C@@]5(C)CC[C@H]6[C@H](C)CC[C@@H]([C@H]3C)[C@@]46OO5)O[C@@H]3O[C@@]4(C)CC[C@@H]1[C@]32OO4` (some centres undefined) yielded an IC50 [4] of 8.7 nM.
Work on `C[C@@H]1CC[C@H]2[C@@H](C)C(=O)O[C@@H]3O[C@@]4(C)CC[C@@H]1[C@]32OO4` [ARTEMISININ] yielded an IC50 [5] of 7 nM.
In the case of `Nc1ncc(NCc2ccc(CCNC(=O)c3ccc(F)cc3)cc2)c(N)n1`, the IC50 [6] is reported as 6800 nM, the IC50 [7] is reported as 8800 nM and the IC50 [8] is reported as 1100 nM.
Work on `CC(C)C1=C[C@H]2OC3(CCC(NCCNc4ccnc5cc(Cl)ccc45)CC3)OO[C@@]2(C)CC1` (some centres undefined) yielded an Activity [9] of 60%.
Compound `CCN(CCO)CCCC(C)Nc1ccnc2cc(Cl)ccc12` (centres undefined) [HYDROXYCHLOROQUINE] has an IC50 [10] of 2220 nM and an IC50 [11] of 21.5 nM.
`CCc1nc(N)nc(N)c1-c1ccc(Cl)cc1` [PYRIMETHAMINE] showed an IC50 [12] of 4.35 nM and an IC50 [8] of over 10000 nM.
With `Clc1ccc2c(N3CCN(CCCN4CCN(c5ccnc6cc(Cl)ccc56)CC4)CC3)ccnc2c1` [PIPERAQUINE] the IC50 [13] was 81.3 nM.
For `C=C[C@H]1CN2CC[C@H]1C[C@H]2[C@H](O)c1ccnc2ccc(OC)cc12` [QUININE], the IC50 [14] was 66 nM.
Compound `C[C@@H]1CC[C@H]2[C@@H](C)C(OCCN3CC[N+](CCNc4ccnc5cc(Cl)ccc45)(CCOC4O[C@@H]5O[C@@]6(C)CC[C@H]7[C@H](C)CC[C@@H]([C@H]4C)[C@@]57OO6)CC3)O[C@@H]3O[C@@]4(C)CC[C@@H]1[C@]32OO4` (some centres undefined) has an IC50 [4] of 29.5 nM.
For `C[C@H]1c2cccc(O)c2C(=O)C2=C(O)[C@]3(O)C(=O)C(C(N)=O)=C(O)[C@@H](N(C)C)[C@@H]3[C@@H](O)[C@@H]21` [DOXYCYCLINE], the IC50 [15] was 5100 nM.
With `C[C@H]1[C@H](OC(=O)CCC(=O)O)O[C@@H]2O[C@@]3(C)CC[C@H]4[C@H](C)CC[C@@H]1[C@@]24OO3` [ARTESUNATE] the IC50 [16] was 2 nM.
For `CCCCN(CCCC)CC(O)c1cc(Cl)cc2c1-c1ccc(Cl)cc1/C2=C/c1ccc(Cl)cc1` (centres undefined) [LUMEFANTRINE], the IC50 [14] was 3.2 nM.
`Nc1ccc(S(=O)(=O)c2ccc(N)cc2)cc1` [DAPSONE] gave an IC50 [17] of 1620 nM.
Work on `COc1cc(NC(C)CCCN)c2ncccc2c1` (centres undefined) [PRIMAQUINE] yielded an IC50 [14] of over 10000 nM.
Work on `COc1cccc(NC(=O)CSc2nc(-c3ccccc3Cl)ns2)c1` yielded an EC50 [2] of 158000 nM, an EC50 [18] of 2480 nM and an EC50 [3] of 367 nM.
